Our source for the melting point values is US7718808B2, “Thiazole derivatives” (Kyowa Hakko Kirin Co., Ltd., priority 2003, dated 2010).

As a reminder, the melting point is the temperature, or range, at which the solid turns liquid.

`O=C(Nc1nc(-c2ccco2)c(C(=O)c2ccccn2)s1)c1ccccc1` [Compound 199, N-[4-(2-Furyl)-5-(pyridin-2-ylcarbonyl)thiazol-2-yl]benzamide] displayed a melting point of 165 to 171 °C.
The result for `COc1ccccc1C(=O)Nc1nc(-c2ccco2)c(C(=O)c2ccccn2)s1` [Compound 200, N-[4-(2-Furyl)-5-(pyridin-2-ylcarbonyl)thiazol-2-yl]-2-methoxybenzamide] reads 205 to 208 °C; that for `COc1cccc(C(=O)Nc2nc(-c3ccco3)c(C(=O)c3ccccn3)s2)c1` [Compound 201, N-[4-(2-Furyl)-5-(pyridin-2-ylcarbonyl)thiazol-2-yl]-3-methoxybenzamide], 165 to 166 °C.
The result for `COc1ccc(C(=O)Nc2nc(-c3ccco3)c(C(=O)c3ccccn3)s2)cc1` [Compound 202, N-[4-(2-Furyl)-5-(pyridin-2-ylcarbonyl)thiazol-2-yl]-4-methoxybenzamide] reads 187 to 188 °C; that for `COc1ccc(C(=O)Nc2nc(-c3ccco3)c(C(=O)c3ccccn3)s2)cc1OC` [Compound 203, N-[4-(2-Furyl)-5-(pyridin-2-ylcarbonyl)thiazol-2-yl]-3,4-dimethoxybenzamide], 169 to 170 °C; that for `COc1cc(C(=O)Nc2nc(-c3ccco3)c(C(=O)c3ccccn3)s2)cc(OC)c1OC` [Compound 204, N-[4-(2-Furyl)-5-(pyridin-2-ylcarbonyl)thiazol-2-yl]-3,4,5-trimethoxybenzamide], 172 to 180 °C (dec.).
With `N#Cc1cccc(C(=O)Nc2nc(-c3ccco3)c(C(=O)c3ccccn3)s2)c1` [Compound 205, 3-Cyano-N-[4-(2-furyl)-5-(pyridin-2-ylcarbonyl)thiazol-2-yl]benzamide], the melting point was 234 to 237 °C.
In turn, `CC(=O)c1cccc(C(=O)Nc2nc(-c3ccco3)c(C(=O)c3ccccn3)s2)c1` [Compound 207, 3-Acetyl-N-[4-(2-furyl)-5-(pyridin-2-ylcarbonyl)thiazol-2-yl]benzamide] displayed a melting point of 168 to 169 °C.
For the compound `CC(=O)c1ccc(C(=O)Nc2nc(-c3ccco3)c(C(=O)c3ccccn3)s2)cc1` [Compound 208, 4-Acetyl-N-[4-(2-furyl)-5-(pyridin-2-ylcarbonyl)thiazol-2-yl]benzamide], the melting point lay within 204 to 206 °C.
`O=C(Nc1nc(-c2ccco2)c(C(=O)c2ccccn2)s1)c1ccc2c(c1)OCO2` [Compound 209, N-[4-(2-Furyl)-5-(pyridin-2-ylcarbonyl)thiazol-2-yl]-3,4-methylenedioxybenzamide] came in with a melting point of 235 to 236 °C.
In turn, `O=C(Nc1nc(-c2ccco2)c(C(=O)c2ccccn2)s1)c1ccc2c(c1)OCCO2` [Compound 210, N-[4-(2-Furyl)-5-(pyridin-2-ylcarbonyl)thiazol-2-yl]-1,4-benzodioxane-6-carboxamide] had a melting point of 189 to 191 °C.
Compound `O=C(c1ccccn1)c1sc(NC(=O)C2COc3ccccc3O2)nc1-c1ccco1` (centres unmarked) [Compound 211, N-[4-(2-Furyl)-5-(pyridin-2-ylcarbonyl)thiazol-2-yl]-1,4-benzodioxane-2-carboxamide] returned a melting point of 103 to 104 °C.
The value for `Cc1cc(C(=O)Nc2nc(-c3ccco3)c(C(=O)c3ccccn3)s2)ccn1` [Compound 212, N-[4-(2-Furyl)-5-(pyridin-2-ylcarbonyl)thiazol-2-yl]-2-methylpyridine-4-carboxamide] was 187 to 188 °C; that for `O=C(Nc1nc(-c2ccco2)c(C(=O)c2ccccn2)s1)c1ccnc(Cl)c1` [Compound 214, 2-Chloro-N-[4-(2-furyl)-5-(pyridin-2-ylcarbonyl)thiazol-2-yl]pyridine-4-carboxamide] was 219 to 225 °C; that for `O=C(Nc1nc(-c2ccco2)c(C(=O)c2ccccn2)s1)c1ccncc1Cl` [Compound 215, 3-Chloro-N-[4-(2-furyl)-5-(pyridin-2-ylcarbonyl)thiazol-2-yl]pyridine-4-carboxamide] was 206 to 207 °C.
Take `O=C(Nc1nc(-c2ccco2)c(C(=O)c2ccccn2)s1)c1cc(Cl)nc(Cl)c1` [Compound 216, 2,6-Dichloro-N-[4-(2-furyl)-5-(pyridin-2-ylcarbonyl)thiazol-2-yl]pyridine-4-carboxamide]: the melting point lay within 254 to 258 °C.
The value for `COCCN(C)c1cc(C(=O)Nc2nc(-c3ccco3)c(C(=O)c3ccccn3)s2)ccn1` [Compound 217, N-[4-(2-Furyl)-5-(pyridin-2-ylcarbonyl)thiazol-2-yl]-2-[N-(2-methoxyethyl)-N-methylamino]pyridine-4-carboxamide] was 114 to 117 °C; that for `O=C(Nc1nc(-c2ccco2)c(C(=O)c2ccccn2)s1)c1ccnc(N2CCCCC2)c1` [Compound 218, N-[4-(2-Furyl)-5-(pyridin-2-ylcarbonyl)thiazol-2-yl]-2-piperidinopyridine-4-carboxamide] was 136 to 141 °C; that for `O=C(Nc1nc(-c2ccco2)c(C(=O)c2ccccn2)s1)c1ccnc(N2CCOCC2)c1` [Compound 219, N-[4-(2-Furyl)-5-(pyridin-2-ylcarbonyl)thiazol-2-yl]-2-morpholinopyridine-4-carboxamide] was 216 to 217 °C.
The result for `Cc1ncccc1C(=O)Nc1nc(-c2ccco2)c(C(=O)c2ccccn2)s1` [Compound 221, N-[4-(2-Furyl)-5-(pyridin-2-ylcarbonyl)thiazol-2-yl]-2-methylpyridine-3-carboxamide] reads 186 to 187 °C.
`Cc1ccc(C(=O)Nc2nc(-c3ccco3)c(C(=O)c3ccccn3)s2)cn1` [Compound 222, N-[4-(2-Furyl)-5-(pyridin-2-ylcarbonyl)thiazol-2-yl]-2-methylpyridine-5-carboxamide] had a melting point of 210 to 215 °C.
Take `Cc1cncc(C(=O)Nc2nc(-c3ccco3)c(C(=O)c3ccccn3)s2)c1` [Compound 223, N-[4-(2-Furyl)-5-(pyridine-2-ylcarbonyl)thiazol-2-yl]-5-methylpyridine-3-carboxamide]: the melting point lay within 245 to 248 °C.
`COc1ccc(C(=O)Nc2nc(-c3ccco3)c(C(=O)c3ccccn3)s2)c(OC)n1` [Compound 224, N-[4-(2-Furyl)-5-(pyridin-2-ylcarbonyl)thiazol-2-yl]-2,6-dimethoxypyridine-3-carboxamide]: the melting point was 201 to 202 °C.
In turn, `O=C(Nc1nc(-c2ccco2)c(C(=O)c2ccccn2)s1)c1cncc(Br)c1` [Compound 226, 5-Bromo-N-[4-(2-furyl)-5-(pyridin-2-ylcarbonyl)thiazol-2-yl]pyridine-3-carboxamide] came in with a melting point of 259 to 262 °C.
For the compound `O=C(Nc1nc(-c2ccco2)c(C(=O)c2ccccn2)s1)c1ccnnc1` [Compound 227, N-[4-(2-Furyl)-5-(pyridin-2-ylcarbonyl)thiazol-2-yl]pyridazine-4-carboxamide], the melting point fell in the range of 270 to 274 °C.
On to `O=C(Nc1nc(-c2ccco2)c(C(=O)c2ccccn2)s1)c1cnc(C2CC2)nc1` [Compound 229, 2-Cyclopropyl-N-[4-(2-furyl)-5-(pyridin-2-ylcarbonyl)thiazol-2-yl]pyrimidine-5-carboxamide], for which the melting point is 150 to 154 °C.
